According to paper PMC3722118, “Hellebrin and its aglycone form hellebrigenin display similar in vitro growth inhibitory effects in cancer cells and binding profiles to the alpha subunits of the Na^+/K^+-ATPase” (Molecular Cancer, 2013):
Read-outs that look alike come from different tables or passages of the source.

What was measured:
[1] = tested on: HT-29 colon cancer cells; test: O2 consumption rate (MitoXpress assay); type: cell-based, human; settings: compounds at their IC50 (MTT), 24 h
Procedure: For enzymatic determination of lactate production, confluent tumor cells were incubated with 10 mM glucose for 24 hours. Culture medium was then filtered through centrifugation columns with a 10 KDa cutoff, and L-lactate concentrations were determined on an ISCUSflex analyzer (CMA Microdialysis AB, Solna, Sweden). O2 consumption was determined using the MitoXpress assay according to the manufacturer’s instructions (LuxCell Biosciences, Cork, Ireland). Briefly, after adding the oxygen probe to tumor cells cultured for 24 hours in 96-well microplates with or without the tested compounds, the wells were sealed with mineral oil, and respiration was evaluated using time-resolved fluorescent plate readers. Under these conditions, O2 depletion was translated into an increase in probe phosphorescence signal, and the slope of this signal was used to derive the O2 consumption rate.
Figure 6 Metabolic profiling of human HT29 colon cancer cells treated with cardiotonic steroids. A: Extracellular lactate concentrations and B: O2 consumption rates in HT29 cancer cells treated with the indicated compounds at their IC50in vitro growth inhibitory concentrations (see Table 1). The data (mean ± SEM from triplicates) are expressed in mM lactate accumulated in the extracellular medium after 24 hours and arbitrary units derived from time-resolved fluorescent signal.min^-1.

[2] = tested on: NHDF fibroblasts; test: MTT growth inhibition in non-cancerous control cell line; type: cell-based; settings: NHDF, normal human fibroblasts, read-out: in vitro growth inhibitory effects (IC50) in NHDF fibroblasts
Description: (§1) The histological types and origins of the eight human cancer cell lines that were used for the MTT colorimetric assay are detailed in the legend of Table 1. Two mouse cancer cell lines were also used, the CT26.WT colon cancer cell line (ATCC code CRL-2638) and the B16F10 melanoma cell line (ATCC code CRL-6475). Both cell lines were obtained from the American Type Culture Collection (ATCC, Manassas, VA). A control cell line (human NHDF fibroblasts) was obtained from PromoCell (code c-12300; Heidelberg, Germany). The cell lines detailed in Figure 2A are a generous gift from the National Cancer Institute (NCI, Bethesda, USA) to Steven Karlish’s lab.
(§2) The cancer cells were cultured in RPMI (Lonza, Verviers, Belgium) medium supplemented with 10% heat-inactivated fetal calf serum (Lonza). All culture media were supplemented with 4 mM glutamine, 100 μg/mL gentamicin, 200 U/mL penicillin and 200 μg/mL streptomycin (Lonza). The NHDF fibroblasts were cultured in Lonza medium cc3132 KT FGM-2 BulletKit.
(§3) The overall growth level of the human cancer cell lines was determined using a colorimetric MTT (3-(4,5-dimethylthiazol-2yl)-2,5-diphenyltetrazolium bromide, Sigma, Belgium) assay as detailed previously. Briefly, this test measures the number of metabolically active (thus living) cells that are able to transform the yellow MTT into the blue formazan dye via a mitochondrial reduction involving succinate dehydrogenase. The amount of formazan obtained at the end of the experiment (measured by spectrophotometry) is directly proportional to the number of living cells. The determination of the optical density in the control compared to the treated cells therefore enables quantitative measurements of the effects of compounds on the growth of normal as well as cancer cells in vitro.
(§4) Each experimental condition was performed in six replicates.

[3] = tested on: human cancer cells (A549, U373, Hs683, T98G, MCF-7, SKMEL-28, PC-3, HT-29); test: MTT growth inhibition, mean over the eight human cancer cell lines; type: cell-based; settings: 72 h, read-out: IC50 (nM) Mean ± SEM
Description: as §1, §2, §3, §4

[4] = tested on: B16F10 melanoma cells; test: MTT growth inhibition in mouse cancer cells; type: cell-based; settings: B16-F10; mouse cancer cell line; read-out: IC50 growth inhibitory concentration in B16F10 melanoma cells
Description: as §1
(§5) The cancer cells were cultured in RPMI (Lonza, Verviers, Belgium) medium supplemented with 10% heat-inactivated fetal calf serum (Lonza). […]
as §3, with “Briefly, this test measures the number of metabolically active (thus living) cells that are able to transform the yellow MTT into the blue formazan dye via a mitochondrial reduction involving succinate dehydrogenase.” left out, “vitro. […]” for “vitro.”

[5] = tested on: CT26 colon cancer cells; test: MTT growth inhibition in mouse cancer cells; type: cell-based; settings: mouse cancer cell line, read-out: IC50 growth inhibitory concentration in CT26 colon cancer cells
Description: as §1, §5
as §3, with “Briefly, this test measures the number of metabolically active (thus living) cells that are able to transform the yellow MTT into the blue formazan dye via a mitochondrial reduction involving succinate dehydrogenase.” left out, “vitro. […]” for “vitro.”

[6] = tested on: MCF-7 breast cancer cells; test: MTT colorimetric in vitro growth inhibition assay; type: cell-based, human; settings: Homo sapiens, MCF7, 72 h, read-out: IC50 (nM) MCF-7
Description: as §1, §2, §3, §4

[7] = tested on: HT-29 colon cancer cells; test: MTT colorimetric in vitro growth inhibition assay; type: cell-based, human; settings: Homo sapiens, HT-29, 72 h, read-out: IC50 (nM) HT-29
Description: as §1, §2, §3, §4

[8] = tested on: PC-3 prostate cancer cells; test: MTT colorimetric in vitro growth inhibition assay; type: cell-based, human; settings: Homo sapiens, 72 h, read-out: IC50 (nM) PC-3
Description: as §1, §2, §3, §4

[9] = tested on: A549 NSCLC cells; test: MTT colorimetric in vitro growth inhibition assay; type: cell-based, human; settings: Homo sapiens, A549, 72 h, read-out: IC50 (nM) A549
Description: as §1, §2, §3, §4

[10] = tested on: U373 glioma cells; test: MTT colorimetric in vitro growth inhibition assay; type: cell-based, human; settings: Homo sapiens, U373 MG, 72 h, read-out: IC50 (nM) U373
Description: as §1, §2, §3, §4

[11] = tested on: T98G glioma cells; test: MTT colorimetric in vitro growth inhibition assay; type: cell-based, human; settings: Homo sapiens, T98G, 72 h, read-out: IC50 (nM) T98G
Description: as §1, §2, §3, §4

[12] = tested on: SKMEL-28 melanoma cells; test: MTT colorimetric in vitro growth inhibition assay; type: cell-based, human; settings: Homo sapiens, SK-MEL-28, 72 h, read-out: IC50 (nM) SKMEL-28
Description: as §1, §2, §3, §4

[13] = tested on: Hs683 glioma cells; test: MTT colorimetric in vitro growth inhibition assay; type: cell-based, human; settings: Homo sapiens, Hs 683, 72 h, read-out: IC50 (nM) Hs683
Description: as §1, §2, §3, §4

[14] = target: T1, human α3β1 NaK complex (Homo sapiens, UniProt P13637); test: 3H-ouabain competitive displacement on P. pastoris membranes; type: binding
T1 construct: made in house; host or cells: Pichia pastoris strain SMD1165 (membranes)
Procedure: (§6) K0.5 was calculated using a one site inhibition model: B/BCG=0 = K0.5/([CG] + K0.5). […] Binding of each cardiac glycoside was estimated in 3 separate experiments.
(§7) Average KD or Ki values ± SEM for each isoform were calculated. Statistical significance was calculated by the unpaired Students t-test. P values <0.05 were considered significant.

[15] = target: T2, human α2β1 NaK complex (Homo sapiens, UniProt P50993); test: as above; type: binding
T2 construct: made in house; host or cells: Pichia pastoris strain SMD1165 (membranes)
Procedure: as §6, §7

[16] = target: T3, human α1β1 NaK complex (Homo sapiens, UniProt P05023); test: as above; type: binding; settings: 3H-ouabain displacement, three independent experiments; read-out: Affinity (nM) α-1 (KD ± SEM)
T3 construct: made in house; host or cells: Pichia pastoris strain SMD1165 (membranes)
Procedure: as §6, §7

[17] = target: T3, human α1β1 NaK complex; settings: 3H-ouabain displacement; ref Katz et al. [5]; read-out: Affinity (nM) α-1 (KD ± SEM); cited from earlier work
[18] = target: T2, human α2β1 NaK complex; settings: ref Katz et al. [5], cited from earlier work
[19] = target: T1, human α3β1 NaK complex; settings: ref Katz et al. [5], cited from earlier work
[20] = three days of culture, * three independent experiments, ** one experiment, six replicates

With C[C@@H]1O[C@@H](O[C@H]2CC[C@@]3(C)[C@H](CC[C@@H]4[C@@H]3[C@H](O)C[C@]3(C)[C@@H](c5ccc(=O)oc5)CC[C@]43O)C2)[C@H](O)[C@H](O)[C@H]1O [Gamabufotalin-rhamnoside] the “O2 consumption rate (cell respiration)” value [1] was “significantly reduced”, the IC50 [2] was 1840 nM and the IC50 ([3]; Homo sapiens) was 9 ± 2 nM. It also gave an IC50 [4] of 700 nM, an IC50 [5] of 900 nM and an IC50 [6] of 17 ± 5 nM. For the same molecule, the IC50 [7] was 8 ± 1 nM, the IC50 [8] was 6 ± 1 nM and the IC50 [9] was 3 ± 1 nM. The IC50 [10] was 6 ± 2 nM, the IC50 [11] was 7 ± 1 nM and the IC50 [12] was 18 ± 7 nM. For the same molecule, the IC50 [13] was 4 ± 1 nM, the Kd ([14]; 3H-ouabain displacement, three independent experiments, read-out: Affinity (nM) α-3 (KD ± SEM)) was 17 ± 2 nM and the “Selectivity α-1 / α-3” value ([14]; ratio of KD α-1 to KD α-3) was 1.8. For the same molecule, the Kd ([15]; 3H-ouabain displacement, three independent experiments, read-out: Affinity (nM) α-2 (KD ± SEM)) was 36 ± 10 nM, the “Selectivity α-1 / α-2” value ([15]; ratio of KD α-1 to KD α-2) was 0.8 and the Kd [16] was 30 ± 7 nM.
For C[C@]12CC[C@H](O)C[C@H]1CC[C@@H]1[C@@H]2CC[C@]2(C)[C@@H](C3=CC(=O)OC3)[C@@H](O)C[C@]12O [Gitoxigenin, gitoxigenin], the IC50 ([3]; mean over eight human cancer cell lines, three days of culture) is given as > 4250 nM, the Kd [17] is given as 500 ± 90 nM and the Kd ([18]; 3H-ouabain displacement, read-out: Affinity (nM) α-2 (KD ± SEM)) is given as 1180 nM. For the same molecule, the “Selectivity α-1 / α-2” value ([18]; ratio of KD α-1 to KD α-2) was 0.4, the IC50 [6, 20] was 5190 nM and the IC50 [7, 20] was 4400 nM. It also gave an IC50 [8, 20] of 3960 nM, an IC50 [9, 20] of 1720 nM and an IC50 [10, 20] of 4480 nM. The IC50 [11, 20] was 3590 nM, the IC50 [12, 20] was > 10000 nM and the IC50 [13, 20] was 653 nM. For the same molecule, the Kd ([19]; 3H-ouabain displacement, read-out: Affinity (nM) α-3 (KD ± SEM)) was 1050 nM and the “Selectivity α-1 / α-3” value ([19]; ratio of KD α-1 to KD α-3) was 0.5.
